Assay results published in patent US7923204B2, “Forward mutation assay based on 5-fluorouracil resistance” (priority 2003, dated 2011).
Like-named read-outs stand apart in the source and are kept apart here.

Legend:
[1] = test system: chromosome aberrations; settings: NTP Results Report 12 Aug. 2002; cited from earlier work
[2] = test system: Salmonella; settings: NTP Results Report 12 Aug. 2002 or cited reference (footnotes f, g, i, j); cited from earlier work
[3] = test system: micronucleus; settings: NTP Results Report 12 Aug. 2002; cited from earlier work
[4] = test system: FU100; settings: for Results (5-FU assay): FU100, 2 h exposure; for Lowest Positive Dose: lowest dose tested giving a positive response; for response in the 5-FU Assay (in words): text and figure legend (FIG. 6), with or without S9
Experimental: Briefly, in order to practice the disclosed mutation assay one-ml aliquots of exponentially growing bacteria are exposed to the test agent for two hours in the presence and absence of a metabolic activation system, such as a mammalian (i.e., rat, hamster or human) liver homogenate (S9-fraction or liver microsomal enzymes). The aliquots are then diluted, allowed to grow for 3 hours, and assessed for treatment-related toxicity/inhibition by optical density. The cultures are subsequently diluted a second time and grown overnight to permit full recovery from toxicity and to allow expression of the FU^R phenotype. Samples of the cultures are then plated in 384-well microtiter dishes in the presence of 2 μg/ml 5-FU and the pH-sensitive indicator bromcresol purple. Three days later positive wells containing FU^R colonies are detected by their yellow color and enumerated. Treated cultures are then compared to control plates to determine genotoxic activity.
For each mutation experiment, two frozen 1-ml aliquots of FU100 were quickly thawed in a 37° C. water bath, pelleted by centrifugation, washed to remove the DMSO, and suspended in 35 mL of MinE medium. The culture was shaken for approximately 1 hour at 37° C. until the optical density at 600 nm (OD600) reached the target density of 0.3. A 16-ml aliquot of culture was added to each of two 50-ml tubes containing 3.6 ml of a NADPH-generating system (5.6 mM glucose-6-phosphate, 4.5 mM NADP+, 5 mM sucrose, 110 mM Na2HPO4, 37 mM KCl, and 9 mM MgCl2) and either 0.4 ml rat liver S-9 or an equal volume of sodium phosphate buffer. Aliquots of these mixtures were distributed into three 12-well cluster dishes (one for exposure with S-9, one for exposure without S-9, one for controls with and without S-9), and exposed to test compounds as 1-ml aliquots for 2 hour as outlined in FIG. 1.
Following treatment, the 1-ml aliquots were transferred into 9 ml of warm MinE medium in a 50 ml tube and incubated at 37° C. on a rotary wheel for 3 hours. Next, 20 ml of medium was added to each culture tube and 0.25 ml aliquots were transferred to a 96-well plate for OD600 measurements to assess toxicity (OD Day 1). […] Bulk cultures were then incubated overnight in the dark at 30° C. to permit recovery from toxicity and to allow time for the test cells to express the FU^R phenotype.
The next day, OD600 was again assessed to adjust cell number plated on 5-FU plates (OD Day 2; 100 μl of the culture diluted with 150 μl MinE medium for OD600 measurements). For plating, a 35 μl aliquot of each culture was added to 31.4 mL of MinE medium with 2 μg/ml of 5-FU and 10 μg/ml of bromcresol purple. The mixture was then dispersed into a 384-well plate (75 μl/well) and placed at 37° C. for 3 days in a humidified incubator.
The data obtained for both survival (OD day 1), relative number of cells plated (OD day 2), and number of positive wells were imported into an Excel template.
Table 8 summarizes the criteria for positive result in 5-FU assay using the FU100 tester strain described and claimed herein. […] A positive compound was defined when two or more doses met the aforementioned criteria.

[5] = test system: mouse lymphoma; settings: NTP Results Report 12 Aug. 2002; cited from earlier work
[6] = test system: FU100; settings: approximate, first dose with greater than 50% survival by optical density on Day 1
[7] = test system: TA100, TA1535; settings: TA100 or TA1535; plate incorporation or liquid suspension
From the text: As stated above, the Ames Salmonella his+ plate incorporation assay evaluates genotoxic activity (mutagenicity) of chemical compounds on a set of genetically modified bacterial tester strains that are auxotrophic for the amino acid histidine. In practice, the Ames Assay simultaneously evaluates the genotoxic activity of a potential mutagen on several different target genes. The standard Ames Assay utilizes several different tester strains, each with a distinct mutation (e.g., transition, frameshift etc.) in one of the genes comprising the histidine (his) biosynthetic operon. The his operon encodes enzymes required for the biosynthesis of the amino acid histidine. For example, strain TA98 contains the hisD3052 allele which is reverted by a frameshift mutation, while strain TA1535 contains the hisG46 allele which is reverted by transition and transversion mutations. More specifically, the Ames Assay evaluates the ability of a chemical agent to increase the rate of reversion of auxotrophic strains of Salmonella to prototrophy.

[8] = test system: sister chromatid exchange; settings: NTP Results Report 12 Aug. 2002; cited from earlier work
[9] = test system: TA100 his+
Experimental: A study was then conducted to determine the optimal concentration of the selective agent 5-FU. The growth rate was determined for cultures in MinE containing up to 8 μg/ml 5-FU.

[10] = test system: wild-type cells; experiment: Growth inhibition by 5-fluoroorotic acid (block of de novo pyrimidine synthesis); type: cell-based, Salmonella; settings: 50 μg/ml; reversed by addition of 20 μg/ml uracil
From the text: It was recognized that reducing the background mutation frequency by eliminating preexisting FU^R mutants could increase the sensitivity of the assay. Since the only mechanism leading to 5-FU resistance in Salmonella involves loss of uracil phosphoribosyltransferase, a uracil salvage enzyme and product of the upp gene, it was theorized that blockage of the de novo pyrimidine synthesis and supplementation with uracil should permit growth of wild-type cells and selection against FU^R upp mutants.
It was also determined that upp mutants cannot grow in the presence of 5-fluorooroticacid and uracil, presumably due to their inability to utilize exogenous uracil. […] Frozen stocks of FU100 were prepared using cultures grown under these conditions (described in Materials and Methods) in order to produce “cleansed” working stocks with reduced background.

[11] = in the presence of S9 activation (+)

Compound	NTP Results: CA = chromosome aberrations [1]	NTP Results: SA = Salmonella [2]	NTP Results: MN = micronucleus [3]	Results (5-FU assay) [4, 11]	Lowest Positive Dose [4, 11] [µg/mL]	response in the 5-FU Assay (in words) [4]	response in the 5-FU Assay (in words) ([4]; listed as 1,2-epoxybutane)	Results (5-FU assay) ([4]; without S9 activation (−))	Lowest Positive Dose ([4]; without S9 activation (−)) [µg/mL]	NTP Results: ML = mouse lymphoma [5]	LD50 [6, 11] [µg/mL]	LD50 ([6]; without S9 activation (−)) [µg/mL]	response in the standard Ames assay (in words) [7]	NTP Results: SC = sister chromatid exchange [8]	5-FU concentration that significantly inhibited culture growth [9]	5-FU concentration at which cultures continued to grow (longer doubling times) ([9]; cultures in MinE, up to 8 μg/ml 5-FU, data not shown)	effect on growth of wild-type cells [10]
CCC1CO1 (stereo not shown) [1,2-Epoxybutane]	+	+	−	Pos	500	positive compounds in non-toxic concentrations	easy to detect	Pos	8.9	+	>5000	>5000	weak or equivocal response	+			
O=c1[nH]cc(F)c(=O)[nH]1 [5-FU, 5-fluorouracil]															greater than or equal to 1 μg/ml	less than or equal to 0.5 μg/ml	
O=C(O)c1[nH]c(=O)[nH]c(=O)c1F [5-fluorooroticacid, 5-fluoroorotic acid]																	inhibited growth
ClCc1ccccc1 [Benzyl Chloride]	+	+^w		Pos	50	easy to detect		Pos	28	+	>150	>1500	weak or equivocal response	+			
O=P1(N(CCCl)CCCl)NCCCO1 (stereo not shown) [Cyclophosphamide•H2O]	(SA+, CA+, SC+, MN+)	(SA+, CA+, SC+, MN+)	(SA+, CA+, SC+, MN+)	Pos^w	1500	weak positive		Neg			>300	>1500	positive	(SA+, CA+, SC+, MN+)			
